The values below come from DBAASP.

Among the test systems are Escherichia coli D31; Staphylococcus aureus MR; Escherichia coli O157:H7; Escherichia coli J2210; Escherichia coli JJ2487; Escherichia coli JW0013; Escherichia coli MC1061.
What all share (assay): ≥ marks a high value that may be exact or a test limit, other limits are often not marked, values filed in µg/mL are converted to µM
Test [1] deals with Staphylococcus aureus ATCC 25923.
Test [2] relates to Streptococcus mutans ATCC 25175.
Test [3] has as its system Candida albicans ATCC 10231.
Test [4] deals with Bacillus subtilis ATCC 6633.
Test [5] concerns Staphylococcus aureus ATCC 43300.
Test [6] concerns Pseudomonas aeruginosa ATCC 15442.
Test [7] relates to Pseudomonas aeruginosa PAO1.
For test [8], the system named is Escherichia coli ATCC 25922.
The test system of test [9] is Pseudomonas aeruginosa ATCC 27853.
Test [10] deals with Staphylococcus aureus ATCC 12600.
In test [11] the test system is Staphylococcus aureus ATCC 6538.
Test [12] deals with Klebsiella pneumoniae NCTC 5055.
In test [13] the test system is Salmonella typhimurium DA6192.
Test [14] relates to Micrococcus luteus ATCC 49732.
The test system of test [15] is Escherichia coli ATCC 15597.
Test [16] has as its system Pseudomonas aeruginosa ATCC 10145.
Test [17] deals with Escherichia coli ATCC 2592.
Test [18] relates to Cryptococcus neoformans ATCC 32045.
Test [19] concerns Staphylococcus aureus ATCC 33591.
Test [20] relates to Salmonella enterica subsp. enterica serovar Enteritidis MH91989.
The subject of test [21] is Salmonella typhimurium SL1344.

Converted amounts (≈) assume the structure as drawn.

As to `CC[C@H](C)[C@H](NC(=O)[C@H](CCCCN)NC(=O)[C@H](CCC(N)=O)NC(=O)[C@H](CC(C)C)NC(=O)[C@@H](N)Cc1ccccc1)C(=O)N[C@H](C(=O)NCC(=O)N[C@@H](C)C(=O)N[C@@H](CC(C)C)C(=O)NCC(=O)N[C@@H](Cc1cnc[nH]1)C(=O)N[C@@H](CC(C)C)C(=O)N[C@@H](Cc1ccccc1)C(N)=O)[C@@H](C)CC` [FLQKIIGALGHLF], the MIC was 3.1 µM (≈ 4.51 µg/mL) in test [1]; 6.2 µM (≈ 9.03 µg/mL) in [2]; over 100 µM in test [3]; at least 100 µM in test [4]; at least 100 µM in the test with Escherichia coli D31; 12.5 µM (≈ 18.2 µg/mL) with Staphylococcus aureus MR. The MIC in test [5] was 6.2 µM (≈ 9.03 µg/mL); in test [6], 6.2 µM (≈ 9.03 µg/mL); in [7], over 100 µM; in test [8] it was 12.5 µM (≈ 18.2 µg/mL).

For the compound `CC[C@H](C)[C@H](NC(=O)[C@H](C)NC(=O)CNC(=O)[C@H](Cc1ccccc1)NC(=O)[C@H](CC(C)C)NC(=O)CN)C(=O)N[C@@H](C)C(=O)NCC(=O)N[C@@H](Cc1ccccc1)C(=O)N[C@H](C(=O)N[C@@H](CCCCN)C(=O)N[C@@H](CC(N)=O)C(=O)NCC(=O)N[C@@H](Cc1c[nH]c2ccccc12)C(=O)N[C@@H](CCCCN)C(=O)NCC(=O)N[C@@H](CCSC)C(=O)N[C@H](C(=O)N[C@@H](CCCCN)C(=O)NCC(N)=O)[C@@H](C)CC)[C@@H](C)CC` [GLFGAIAGFIKNGWKGMIKG], the MIC in [2] is 1.9 µM (≈ 3.92 µg/mL); in test [9], 7.6 µM (≈ 15.7 µg/mL); in test [10], 3.8 µM (≈ 7.85 µg/mL); in test [8] it was 3.8 µM (≈ 7.85 µg/mL).

As for `CC[C@H](C)[C@H](N)C(=O)N[C@@H](CCC(N)=O)C(=O)N[C@@H](CCCCN)C(=O)N[C@H](C(=O)N[C@H](C(=O)N[C@@H](CCC(N)=O)C(=O)N[C@@H](CCCCN)C(=O)N[C@@H](CC(C)C)C(=O)N[C@@H](CC(C)C)C(=O)N[C@@H](CC(N)=O)C(=O)N[C@@H](CCCN=C(N)N)C(=O)N[C@@H](CC(C)C)C(=O)N[C@@H](CCC(N)=O)C(=O)N[C@@H](CCCCN)C(=O)N[C@H](C(=O)N[C@@H](CC(C)C)C(=O)N[C@@H](CCC(N)=O)C(=O)N[C@@H](CCCCN)C(=O)O)[C@@H](C)CC)[C@@H](C)CC)C(C)C` [IQKVIQKLLNRLQKILQK], the MIC in test [11] is over 50 µM; in test [12], 12.5 µM (≈ 27.6 µg/mL); in test [9] it was 3.1 µM (≈ 6.83 µg/mL); in test [13] it was 20.8 µM (≈ 45.9 µg/mL); in [4], 4.2 µM (≈ 9.26 µg/mL); in test [14] it was 1.05 µM (≈ 2.32 µg/mL). In addition, the MIC in test [15] came to 3.1 µM (≈ 6.83 µg/mL).

With `CC[C@H](C)[C@H](N)C(=O)N[C@H](C(=O)N[C@@H](CCCCN)C(=O)N[C@H](C(=O)N[C@H](C(=O)N[C@H](C(=O)N[C@@H](CCCCN)C(=O)N[C@@H](CC(C)C)C(=O)N[C@@H](CC(C)C)C(=O)N[C@@H](CC(N)=O)C(=O)N[C@@H](CCCN=C(N)N)C(=O)N[C@@H](CC(C)C)C(=O)N[C@H](C(=O)N[C@@H](CCCCN)C(=O)N[C@H](C(=O)N[C@@H](CC(C)C)C(=O)N[C@@H](CO)C(=O)N[C@@H](CCCCN)C(=O)O)[C@@H](C)CC)[C@@H](C)O)[C@@H](C)O)[C@@H](C)CC)C(C)C)[C@@H](C)O` [ITKVITKLLNRLTKILSK], the MIC was 15 µM (≈ 31.2 µg/mL) in test [11]; at least 50 µM in test [12]; 25 µM (≈ 52.1 µg/mL) in test [9]; at least 40 µM in test [13]; 15 µM (≈ 31.2 µg/mL) in test [4]; 1.5 µM (≈ 3.12 µg/mL) in test [14]. Further, the minimal inhibitory concentration (MIC) in [15] is 3.1 µM (≈ 6.46 µg/mL).

On to `NCCCC[C@H](NC(=O)[C@H](Cc1ccccc1)NC(=O)[C@H](CCCCN)NC(=O)[C@H](CCCCN)NC(=O)[C@H](Cc1ccccc1)NC(=O)[C@H](CCCCN)NC(=O)[C@H](CCCCN)NC(=O)[C@H](Cc1ccccc1)NC(=O)[C@H](CCCCN)NC(=O)[C@H](CCCCN)NC(=O)[C@H](Cc1ccccc1)NC(=O)[C@H](CCCCN)NC(=O)[C@H](CCCCN)NC(=O)[C@H](Cc1ccccc1)NC(=O)[C@H](CCCCN)NC(=O)[C@H](CCCCN)NC(=O)[C@H](Cc1ccccc1)NC(=O)[C@H](CCCCN)NC(=O)[C@H](CCCCN)NC(=O)[C@H](Cc1ccccc1)NC(=O)[C@@H](N)CCCCN)C(=O)O` [KFKKFKKFKKFKKFKKFKKFK], for which the MIC in test [16] is at least 44 µM; in [17], 15.4 µM (≈ 43.8 µg/mL); in test [18] it was 17.5 µM (≈ 49.8 µg/mL); in test [3], 124 µM (≈ 354 µg/mL); in test [19], at least 176 µM.

With `CC(C)C[C@H](NC(=O)[C@H](CCCN=C(N)N)NC(=O)[C@H](CC(C)C)NC(=O)[C@H](CCCN=C(N)N)NC(=O)[C@H](CC(C)C)NC(=O)[C@H](CCCN=C(N)N)NC(=O)[C@H](CC(C)C)NC(=O)[C@H](CCCN=C(N)N)NC(=O)[C@H](CC(C)C)NC(=O)[C@H](CCCN=C(N)N)NC(=O)[C@H](CC(C)C)NC(=O)[C@H](CCCN=C(N)N)NC(=O)[C@@H](N)CC(C)C)C(=O)N[C@@H](CCCN=C(N)N)C(=O)O` [LRLRLRLRLRLRLR], the MIC in test [16] was at least 65.7 µM; in test [17] it was 23 µM (≈ 43.8 µg/mL); in test [18], 2.97 µM (≈ 5.66 µg/mL); in [3] it was 186 µM (≈ 354 µg/mL); in [19], at least 186 µM.

With `CC[C@H](C)[C@H](NC(=O)[C@H](CCCN=C(N)N)NC(=O)[C@H](CCCN=C(N)N)NC(=O)[C@@H]1CCCN1C(=O)[C@@H]1CCCN1C(=O)[C@H](CCCN=C(N)N)NC(=O)[C@@H]1CCCN1C(=O)[C@H](CCCN=C(N)N)NC(=O)[C@@H]1CCCN1C(=O)[C@H](CC(C)C)NC(=O)[C@H](Cc1ccc(O)cc1)NC(=O)[C@@H]1CCCN1C(=O)[C@H](CCCN=C(N)N)NC(=O)[C@H](CCCCN)NC(=O)[C@H](CC(=O)O)NC(=O)[C@@H](N)C(C)C)C(=O)N[C@@H](Cc1ccc(O)cc1)C(=O)N[C@@H](CC(N)=O)C(=O)N[C@@H](CCCN=C(N)N)C(N)=O` [VDKRPYLPRPRPPRRIYNR], the MIC in test [20] was 0.245 µM (≈ 0.6 µg/mL); against Escherichia coli O157:H7 it was 0.98 µM (≈ 2.4 µg/mL); in the test with Escherichia coli J2210 it was 0.245 µM (≈ 0.6 µg/mL); in test [21], 0.245 µM (≈ 0.6 µg/mL); with Escherichia coli JJ2487, 0.159 µM (≈ 0.39 µg/mL); with Escherichia coli JW0013 it was 0.339 µM (≈ 0.83 µg/mL). The MIC in the test with Escherichia coli MC1061 was found to be 0.122 µM (≈ 0.3 µg/mL).

Consider `CC[C@H](C)[C@H](NC(=O)[C@H](CCCN=C(N)N)NC(=O)[C@H](CCCN=C(N)N)NC(=O)[C@@H]1CCCN1C(=O)[C@@H]1CCCN1C(=O)[C@H](CCCN=C(N)N)NC(=O)[C@@H]1CCCN1C(=O)[C@H](CCCN=C(N)N)NC(=O)[C@@H]1CCCN1C(=O)[C@H](CCCN=C(N)N)NC(=O)[C@H](Cc1ccc(O)cc1)NC(=O)[C@@H]1CCCN1C(=O)[C@H](CCCN=C(N)N)NC(=O)[C@H](CCCCN)NC(=O)[C@H](CC(=O)O)NC(=O)[C@@H](N)C(C)C)C(=O)N[C@@H](Cc1ccc(O)cc1)C(=O)N[C@@H](CC(N)=O)C(=O)N[C@@H](CCCN=C(N)N)C(N)=O` [VDKRPYRPRPRPPRRIYNR], for which the MIC was found to be 0.169 µM (≈ 0.42 µg/mL) in test [20]; 0.666 µM (≈ 1.66 µg/mL) in the test with Escherichia coli O157:H7; 0.12 µM (≈ 0.3 µg/mL) in the test on Escherichia coli J2210; 0.156 µM (≈ 0.39 µg/mL) in test [21]; 0.169 µM (≈ 0.42 µg/mL) against Escherichia coli JJ2487; 0.156 µM (≈ 0.39 µg/mL) in the test on Escherichia coli JW0013. In the test on Escherichia coli MC1061, the MIC was determined as 0.0602 µM (≈ 0.15 µg/mL).
